In US20110301079A1, “NEUROMEDIN U RECEPTOR AGONISTS AND USES THEREOF” (Instituto di Ricerche di Biologia Molecolare P. Angeletti …, priority 2007, published 2011):
Residues, ends and D or L forms follow the SMILES beside them. Groups on a side chain read outwards from the residue. No end group written: not given here. *: point of attachment. Succinimide(1-Et,3-yl) = CCN1C(=O)CC(*)C1=O

Experiments:
human NMUR1 = target: T1, human NMUR1 (Homo sapiens, UniProt Q9HB89); assay: FLIPR calcium mobilization assay, human NMUR1-expressing cell line; type: cell-based; settings: for EC50: human NMUR1, FLIPR
T1 construct: expressed in transfected cells; host or cells: FLP-In CHO cells and HEK-293 FLP-In cells (pcDNA5)
T1 sequence (Q9HB89 1-426): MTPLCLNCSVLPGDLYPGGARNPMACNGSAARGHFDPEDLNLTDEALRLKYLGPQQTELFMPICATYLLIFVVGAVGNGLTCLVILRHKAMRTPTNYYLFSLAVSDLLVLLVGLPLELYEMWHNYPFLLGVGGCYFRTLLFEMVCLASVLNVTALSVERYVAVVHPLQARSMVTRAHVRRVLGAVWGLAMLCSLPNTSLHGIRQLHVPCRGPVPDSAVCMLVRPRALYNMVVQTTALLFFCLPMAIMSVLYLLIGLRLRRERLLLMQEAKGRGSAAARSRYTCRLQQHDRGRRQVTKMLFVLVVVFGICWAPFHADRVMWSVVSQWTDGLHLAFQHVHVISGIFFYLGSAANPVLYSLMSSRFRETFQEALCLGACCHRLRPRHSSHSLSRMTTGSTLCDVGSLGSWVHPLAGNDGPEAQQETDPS
Description: (§1) Human, mouse or rat cDNAs encoding NMUR1 or NMUR2 (as described in Howard et al. Nature 406: 70-74 (2000) were subcloned in pcDNA5 (Invitrogen) and transfected into FLP-In CHO cells and HEK-293 FLP-In cells purchased from Invitrogen (Carlsbad, Calif.) using lipofectamine (Invitrogen). The Flp-In system allows integration and expression of a particular gene of interest at a specific genomic location utilizing the Flp recombinase from yeast. The transfected cells were selected by growth in medium containing 200 μg/mL hygromycin (Invitrogen). Populations were frozen at early passage numbers, and these stocks were used for further studies. Stable clones that expressed the mRNAs were identified functionally by FLIPR as well as by RT-PCR. […] Two different rodent NMUR1 cell lines were thus generated: one with the codon as predicted from the genomic databases and another cell line with an engineered methionine (ATG) as the start codon. The dog NMU receptors were also cloned from intestine RNA (NMUR1) and brain (NMUR2) and stable cell lines were generated as used for the human and rodent cell lines. […] To ensure high levels of expression in a heterologous system, a dog NMUR1 cell line was generated that contains an ATG as the start codon. Additionally, stable cell lines expressing the human receptors were generated in HEK-293/aeq 17 cells which stably express the aequorin gene under the CMV promoter. The human NMUR2 cDNA was cloned into pcDNA3.1 and human NMUR1 was subcloned into pIRES-puro (Clontech, Mountain View, Calif.), after transfection cells were selected in media containing G418 and either hygromycin (NMUR2) or puromycin (NMUR1).
(§2) The NMU receptors signal primarily through Gαq/11 proteins; therefore calcium mobilization assays can be utilized for functional activity.
(§3) Stable cell lines expressing human and or rodent NMUR1 or human NMUR2 receptors are plated at a density of 12,000 cells per well overnight on poly-lysine coated 384-well black-walled plates. The following day, the media is removed from the plates and the cells were subsequently loaded with Fluo-3 (Molecular Probes), a calcium sensitive dye, diluted in FLIPR buffer (1× Hank's buffered saline containing 20 mM HEPES, 0.1% BSA, 2.5 mM probenecid (Sigma) and 1.6 mM TR40). All reagents are from Invitrogen unless otherwise noted. Peptide stocks are resuspended in DMSO at a stock concentration of 2 mM and diluted in FLIPR buffer on the day of the experiment to a 4 μM working stock solution.
(§4) After a 90 minute incubation at room-temperature, cell plates are loaded onto a FLIPR (Molecular Devices) to monitor cellular fluorescence (excitation=488 nm; emission=540 nm) before and after compound/peptide addition. Eight to twelve point dose responses are tested on NMUR-expressing cell lines using FLIPR with 1 μM peptide as the highest dose. The response after peptide addition is taken as the maximum fluorescence units minus the fluorescence immediately prior to stimulation for each well. EC50 values are calculated using GraphPad Prism (San Diego, Calif.) software.
(§5) Percent activity refers to the maximum response at 1 μM compared to the human NMU-25 response at the same concentration.

human NMUR2 = target: T2, human NMUR2 (Homo sapiens, UniProt Q9GZQ4); assay: FLIPR calcium mobilization assay, human NMUR2-expressing cell line; type: cell-based; settings: for EC50: human NMUR2, FLIPR
T2 construct: expressed in transfected cells; host or cells: FLP-In CHO cells and HEK-293 FLP-In cells (pcDNA5)
T2 sequence (Q9GZQ4 whole entry): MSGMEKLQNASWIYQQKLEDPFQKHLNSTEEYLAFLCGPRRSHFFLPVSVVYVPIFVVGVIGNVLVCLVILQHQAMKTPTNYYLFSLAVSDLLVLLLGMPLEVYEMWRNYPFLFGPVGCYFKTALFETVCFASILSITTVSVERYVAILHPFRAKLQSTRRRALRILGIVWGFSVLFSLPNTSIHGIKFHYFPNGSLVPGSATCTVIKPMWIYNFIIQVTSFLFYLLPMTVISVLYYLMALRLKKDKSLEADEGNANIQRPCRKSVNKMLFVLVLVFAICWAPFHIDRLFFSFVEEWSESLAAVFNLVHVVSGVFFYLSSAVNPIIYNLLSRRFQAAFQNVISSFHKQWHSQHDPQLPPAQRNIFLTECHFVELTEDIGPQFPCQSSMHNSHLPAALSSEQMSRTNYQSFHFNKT
Description: as §1, §2, §3, §4, §5

mouse NMUR1-ATG = target: T3, mouse NMUR1-ATG (Mus musculus, UniProt O55040); assay: FLIPR calcium mobilization assay, mouse NMUR1-ATG cell line; type: cell-based; settings: for EC50: FLIPR
T3 construct: expressed in transfected cells; host or cells: FLP-In CHO cells and HEK-293 FLP-In cells (pcDNA5)
T3 sequence (O55040 1-428): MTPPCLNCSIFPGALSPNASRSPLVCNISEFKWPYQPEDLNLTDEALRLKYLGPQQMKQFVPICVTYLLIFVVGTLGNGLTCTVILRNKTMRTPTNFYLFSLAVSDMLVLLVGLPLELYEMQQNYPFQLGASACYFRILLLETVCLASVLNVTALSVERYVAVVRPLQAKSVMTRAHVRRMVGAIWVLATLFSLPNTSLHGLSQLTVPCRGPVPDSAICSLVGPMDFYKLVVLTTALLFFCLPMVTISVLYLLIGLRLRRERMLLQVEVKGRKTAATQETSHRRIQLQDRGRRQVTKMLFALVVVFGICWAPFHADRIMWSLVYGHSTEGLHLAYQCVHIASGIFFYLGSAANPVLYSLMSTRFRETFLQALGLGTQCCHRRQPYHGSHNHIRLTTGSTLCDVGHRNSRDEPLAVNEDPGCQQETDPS
Description: as §1, §2, §3, §4, §5

mouse NMUR2 = target: T4, mouse NMUR2 (Mus musculus, UniProt Q8BZ39); assay: FLIPR calcium mobilization assay, mouse NMUR2 cell line; type: cell-based; settings: for EC50: mouse NMUR2, FLIPR
T4 construct: expressed in transfected cells; host or cells: FLP-In CHO cells and HEK-293 FLP-In cells (pcDNA5)
T4 sequence (Q8BZ39 whole entry): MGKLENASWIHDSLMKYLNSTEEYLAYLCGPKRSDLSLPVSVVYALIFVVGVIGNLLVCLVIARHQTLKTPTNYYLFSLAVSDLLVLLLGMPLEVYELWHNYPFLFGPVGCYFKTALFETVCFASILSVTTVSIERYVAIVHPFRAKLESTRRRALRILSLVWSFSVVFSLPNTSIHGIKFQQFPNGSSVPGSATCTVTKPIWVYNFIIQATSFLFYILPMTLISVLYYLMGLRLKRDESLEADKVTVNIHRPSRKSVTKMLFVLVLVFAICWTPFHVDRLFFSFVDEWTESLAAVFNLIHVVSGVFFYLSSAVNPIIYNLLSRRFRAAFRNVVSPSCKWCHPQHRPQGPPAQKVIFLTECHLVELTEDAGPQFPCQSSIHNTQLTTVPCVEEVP
Description: as §1, §2, §3, §4, §5

dog NMUR1-ATG = assay: FLIPR calcium mobilization assay, dog NMUR1-ATG cell line; type: cell-based; settings: for EC50: FLIPR
Description: as §1, §2, §3, §4, §5

dog NMUR2 = target: T5, dog NMUR2 (Canis lupus familiaris, UniProt A0A8I3MN59); assay: FLIPR calcium mobilization assay, dog NMUR2 cell line; type: cell-based; settings: for EC50: dog NMUR2, FLIPR
T5 construct: expressed in transfected cells
T5 sequence (A0A8I3MN59 1-378): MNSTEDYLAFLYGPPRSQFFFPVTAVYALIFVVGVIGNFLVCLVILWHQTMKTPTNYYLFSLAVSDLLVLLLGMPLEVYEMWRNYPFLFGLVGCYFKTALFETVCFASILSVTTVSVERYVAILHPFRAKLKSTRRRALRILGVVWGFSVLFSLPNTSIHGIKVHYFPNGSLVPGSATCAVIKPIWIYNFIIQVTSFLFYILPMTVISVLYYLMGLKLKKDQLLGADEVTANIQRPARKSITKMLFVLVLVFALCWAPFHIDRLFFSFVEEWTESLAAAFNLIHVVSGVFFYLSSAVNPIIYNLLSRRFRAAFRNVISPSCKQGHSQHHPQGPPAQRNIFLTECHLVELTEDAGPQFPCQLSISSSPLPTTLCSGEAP
Description: as §1, §2, §3, §4, §5

[1] = system: wild-type, Nmur1 knockout, Nmur2 knockout and Nmur1/Nmur2 double knockout mice; assay: Acute feeding study in wild-type and Nmur knockout mice; type: in vivo
Method: (§6) Ad libitum fed male diet-induced obese mice obtained from Taconic Farms were weighed and dosed either i.p. or s.c. with NMS or NMU at about 30 minutes prior to the onset of the dark phase of the light cycle and provided with a pre-weighed aliquot of high fat diet (D12492: 60% kcal from fat: Research Diets, Inc.), which was then weighed two and 18 hours after the onset of the initial dark phase. Mice were weighed at the 18 hour (overnight) time point.
NMUR1 knockout (Nmur1−/−) mice were generated using standard homologous recombination techniques. Nmur1 mice were subsequently transferred to Taconic Farms where they were either maintained on a 75% C57BL/6×25% 129S6/SvEv mixed genetic background or backcrossed 6 generations to C57BL/6. NMUR2 knockout (Nmur2−/−) mice were licensed from Deltagen Inc., San Mateo, Calif. and subsequently transferred to Taconic Farms were they were either maintained on a 75% C57BL/6×25% 129/OlaHsd mixed genetic background or backcrossed for 7 generations to C57BL/6. NMUR1 and NMUR2 double knockout (Nmur1&2−/−) mice were generated by crossing N6 Nmur1−/− mice to N7 Nmur2−/− mice. Mice were individually housed in Tecniplast cages in a conventional SPF facility. Mice were initially maintained on a regular chow diet and then early in their life were switched to a high fat diet (D12492) with ad libitum access to water in a 12-h light/12-h dark cycle.
The anorectic effects of NMS1 were mediated by both the NMUR1 and NMUR2 receptors. […] Effects on food intake (FIG. 9A) and body weight (FIG. 9B) are shown.

mice = assay: Acute subcutaneous administration of NMS analogs, daily food intake and body weight; type: in vivo; settings: for overnight food intake: FIG. 6A; for duration of significant reduction of food intake: daily food intake over a four-day period
Method: as §6
The efficacy of various PEGylated NMS analogs were evaluated using the aforementioned assays. The PEGylated NMS analogs evaluated were NMS1 and NMS4 (See Table 1).
NMS1, NMS3, and NMS4 were administered subcutaneously and daily food intake was measured over a four-day period.

[2] = system: male diet-induced obese mice; assay: Acute feeding study with NMU and NMS; type: in vivo; settings: acute peripheral administration (i.p. or s.c.), FIG. 1A
Method: as §6

[3] = maximum response at 1 μM compared to the human NMU-25 response at the same concentration
[4] = acute subcutaneous administration
[5] = acute subcutaneous administration, FIG. 6B

Row | EC50 (human NMUR1) [nM] | EC50 (human NMUR2) [nM] | EC50 (mouse NMUR1-ATG) [nM] | EC50 (mouse NMUR2) [nM] | EC50 (dog NMUR1-ATG) [nM] | EC50 (dog NMUR2) [nM] | Molecule | overnight food intake (mice; [4]) | body weight (mice; [5]) | duration of significant reduction of food intake (mice; [4]) | further results
1 | 11.4 | 18.1 | 8.7 | 11.9 | 11.6 | 2.2 | CC[C@H](C)[C@H](NC(=O)[C@H](CSC1CC(=O)N(CC)C1=O)NC(C)=O)C(=O)N[C@@H](CC(C)C)C(=O)N[C@@H](CCC(N)=O)C(=O)N[C@@H](CCCNC(=N)N)C(=O)NCC(=O)N[C@@H](CO)C(=O)NCC(=O)N[C@H](C(=O)N[C@@H](C)C(=O)N[C@@H](C)C(=O)N[C@H](C(=O)N[C@@H](CC(=O)O)C(=O)N[C@@H](Cc1ccccc1)C(=O)N[C@H](C(=O)N[C@@H](CCCCN)C(=O)N[C@@H](CCCCN)C(=O)N[C@@H](CC(=O)O)C(=O)N[C@@H](Cc1c[nH]cn1)C(=O)N[C@H](C(=O)N[C@@H](C)C(=O)N[C@H](C(=O)N[C@@H](Cc1c[nH]c2ccccc12)C(=O)NCC(=O)N[C@@H](CCCNC(=N)N)C(=O)N1CCC[C@H]1C(=O)N[C@@H](Cc1ccccc1)C(=O)N[C@@H](Cc1ccccc1)C(=O)N[C@@H](CC(C)C)C(=O)N[C@@H](Cc1ccccc1)C(=O)N[C@@H](CCCNC(=N)N)C(=O)N1CCC[C@H]1C(=O)N[C@@H](CCCNC(=N)N)C(=O)N[C@@H](CC(N)=O)C(N)=O)[C@@H](C)O)[C@@H](C)O)[C@@H](C)O)C(C)C)[C@@H](C)O (stereo partly shown) [NMS3] (Ac-C(Succinimide(1-Et,3-yl))ILQRGSGTAAVDFTKKDHTATWGRPFFLFRPRN-NH2) |  |  |  | % Activity (human NMUR1; human NMUR1, maximum response at 1 μM compared to the human NMU-25 response at the same concentration): 97%; % Activity (human NMUR2; human NMUR2, maximum response at 1 μM compared to the human NMU-25 response at the same concentration): 105%; % Activity (mouse NMUR1-ATG; [3]): 98%; % Activity (mouse NMUR2; mouse NMUR2, maximum response at 1 μM compared to the human NMU-25 response at the same concentration): 108%; % Activity (dog NMUR1-ATG; [3]): 101%; % Activity (dog NMUR2; dog NMUR2, maximum response at 1 μM compared to the human NMU-25 response at the same concentration): 107%
2 | 141 | 397 | 589 | 29.1 | 18.5 | 22.5 | Ac-C2ILQRGSGTAAVDFTKKDHTATWGRPFFLFRPRN-CONH2 (Ac-C([maleimide-(PEG)2 40 kDa])ILQRGSGTAAVDFTKKDHTATWGRPFFLFRPRN-NH2) [NMS1, C2 = Cys(PEG)240 kDa, cysteine PEGylated via the side-chain thiol with a branched PEG] | significantly reduced | Significant reductions | three days post-dose | effects on food intake and body weight ([1]; Nmur2 knockout animals, FIGS. 9A and 9B): only overnight effects; food intake ([1]; acute administration, Nmur1/Nmur2 double knockout animals, FIG. 8A): no effect; body weight ([1]; acute administration, Nmur1/Nmur2 double knockout animals, FIG. 8B): no effect; anorectic efficacy ([1]; acute administration, wild-type animals): highly efficacious; body weight (mice; NMS1 compared to NMU9, FIG. 7B): Significant reductions; food intake (mice; dose response, NMS1 versus NMU9, FIG. 7A): reduced food intake for at least three days post-dose in a dose-dependent manner
3 | 73.9 | 103 | 66.2 | 19.4 | 13.1 | 3.1 | Ac-C4ILQRGSGTAAVDFTKKDHTATWGRPFFLFRPRN-CONH2 (Ac-C([maleimide-PEG 40 kDa])ILQRGSGTAAVDFTKKDHTATWGRPFFLFRPRN-NH2) [NMS4, C4 = Cys(PEG)40 kDa, cysteine PEGylated via the side-chain thiol with a linear PEG] | significantly reduced | Significant reductions | two days post-dose | 
4 |  |  |  |  |  |  | NMU: Neuromedin U; full length 25-mer (NMU-25) in humans (FRVDEEFQSPFASQSRGYFLFRPRN; ends and bridges not checked; UniProt P48645 142-166, looked up) |  |  |  | food intake [2]: dose-dependently reduced
